The values below come from patent US8618063B2, “Method for treating a synucleinopathy” (The Board of Trustees of the University of Illinois, priority 2008, dated 2013).

“Also recorded” adds a separate entry of the source. Where two headings read alike, the source gives them in different places.

One assay concerns fast axonal transport. The assay can be described thus: Motility studies in isolated axoplasm: effect of perfused substance on fast axonal transport. As to conditions: substance perfused alone into isolated axoplasm. Type of assay: cell-based, squid Loligo pealeii. On the procedure:
(§1) Axoplasm was extruded from giant axons of the squid Loligo pealeii (Marine Biological Laboratory) according to established methods (Brady, et al. (1985) Cell Motil. 5(2):81-101). Axons were 400-600 μm in diameter and provided ≈5 μl of axoplasm per axon. Wild-type α-synuclein or α-synuclein with point mutations associated with familial Parkinson's disease (Ala30Pro or Ala53Thr), MPP+, enzymes or inhibitors were diluted into X/2 buffer (175 mM potassium aspartate, 65 mM taurine, 35 mM betaine, 25 mM glycine, 10 mM HEPES, 6.5 mM MgCl2, 5 mM EGTA, 1.5 mM CaCl2, 0.5 mM glucose, pH 7.2) supplemented with 2-5 mM ATP and 20 μl of this mix was added to perfusion chambers (Brady, et al. (1985) supra). Preparations were analyzed on a ZEISS AXIOMAT with a 100×, 1.3 na objective, and DIC optics. Hamamatsu Argus 20 and Model 2400 CCD camera were used for image processing and analysis. Organelle velocities were measured with a Photonics Microscopy C2117 video manipulator (Hamamatsu).

For assay [1], the system named is MPP+ effects on fast axonal transport. Put plainly: Isolated axoplasm: blocking of MPP+ effects on fast axonal transport. In kind it is cell-based, squid Loligo pealeii. As to conditions: FIG. 5B. On the procedure: as §1
(§2) MPTP/MPP+ is the best characterized example of toxin-induced Parkinson's disease. The effects of MPP+ on fast axonal transport were examined in axoplasm as was dynein phosphorylation in cells. […] Based on reports that MPP+ could activate caspase3 (Turmel, et al. (2001) Mov. Disord. 16:185-9) and that caspase3 can activate a PKC by proteolytic cleavage (Kaul, et al. (2003) Eur. J. Neurosci. 18:1387-401), the ability of a caspase3 inhibitor to block effects of MPP+ on fast axonal transport was evaluated. […] Further, perfusion with Caspase 3 affected retrograde transport in a manner similar to PKC and MPP+ (retrograde transport=1.462±0.016 μm/sec).

The test system of assay [2] is Ala30Pro mutant α-synuclein induced failure of neurotransmission. The assay can be described thus: Squid giant synapse: prevention of Ala30Pro α-synuclein induced failure of neurotransmission. Type of assay: cell-based. As to conditions: co-injection / coperfusion with Ala30Pro α-synuclein. On the procedure: If they both work by activating PKC and increasing retrograde transport, they might affect availability of synaptic vesicle components in presynaptic terminals. Accordingly, either wild-type α-synuclein, Ala30Pro α-synuclein, or MPP+ were injected into the presynaptic side of the squid giant synapse as described for synaptic vesicles and synapsin (McGuinness, et al. (1989) J. Neurosci. 9:4138-4149; Llinas, et al. (1989) Proc. Nat. Acad. Sci. USA 86:5656-5660). This preparation has been used to evaluate the effects of reagents on presynaptic function by injecting, then stimulating the presynaptic side while recording intracellularly on both pre- and post-synaptic sides (Llinas, et al. (2004) Proc. Natl. Acad. Sci. USA 101:17855-60; Sugimori, et al. (1998) Neuroscience 86:39-51).

In assay [3] the test system is α-synuclein mutant Ala30Pro effects on fast axonal transport. The assay can be described thus: Isolated axoplasm: blocking of mutant α-synuclein (Ala30Pro) effects on fast axonal transport. In kind it is cell-based, squid Loligo pealeii. As to conditions: coperfused with α-synuclein mutant Ala30Pro, FIG. 3. Here is the method: as §1
Accordingly, these inhibitors were coperfused with pathological α-synuclein mutant Ala30Pro and fast axonal transport was monitored. […] Similarly, the effects of α-synuclein mutant Ala30Pro could be blocked by a PKCmu peptide substrate (FIG. 3B) and an inhibitor of Src-Family Tyrosine Kinases (PP2) (FIG. 3C).

Assay [4] concerns LB filaments (wild-type α-synuclein) effects on fast axonal transport. Put plainly: Isolated axoplasm: blocking of LB filament effects on fast axonal transport. Type of assay: cell-based, squid Loligo pealeii. Conditions: FIG. 4B. Here is the method: as §1
Plasmids containing wild-type α-synuclein; Ala30Pro α-synuclein and Ala53Thr α-synuclein for conventional expression in bacteria were used to generate synuclein protein used in axoplasm and squid giant synapse preparations. […] The ability of LB filaments to affect retrograde axonal transport in isolated axoplasm was evaluated, as were the effects of wild-type LB filaments on kinases.

Assay [5] concerns Src/Fyn effects on fast axonal transport. The assay can be described thus: Isolated axoplasm: blocking of Src/Fyn effects on fast axonal transport. Type of assay: cell-based, squid Loligo pealeii. On the procedure: as §1
Screening of nonreceptor tyrosine kinases included Src- and Abl-family members. […] Given that neither kinesin nor dynein are known to have tyrosine phosphorylations, the ability of a broad spectrum PKC inhibitor Gö6976 was included in the assay to block the action of Fyn. Gö6976 inhibition of PKC abolished actions of Src/Fyn on fast axonal transport (FIG. 1D), as did perfusion of the MARCKS peptide.

The test system of assay [6] is DIC phosphorylation. Put plainly: Reelin receptor stimulated DIC phosphorylation. Type of assay: cell-based.
In assay [7] the test system is DIC phosphorylation. Put plainly: Labeling studies with MPP+ treated cortical neurons. In kind it is cell-based. Conditions: MPP+ treated cortical neurons. On the procedure: One mCi ^32P phosphate (ICN) was added per dish and incubated for 4 hours. Medium was discarded, cells homogenized in 1 ml of ROLB buffer and processed accordingly to standard methods (Morfini, et al. (2004) supra). Axoplasms were prepared as for video microscopy, but 1 mCi of γ-^32P-ATP was added. After 50 minutes incubation, axoplasms were homogenized in ROLB buffer. A 10 μl aliquot of lysate was precipitated with 15% TCA and radioactivity incorporated into protein determined by scintillation counting. Aliquots of equal counts were used for kinesin immunoprecipitation with 10 μg of 74.1 antibody and Protein G-agarose beads (Pierce). Immunoprecipitates were separated by SDS-PAGE, dried and exposed in a PHOSPHORIMAGER cassette, then scanned and quantified on a TYPHOON (Amersham/Molecular Dynamics).
as §2

The next assay has as its system phosphorylation of DIC. The assay can be described thus: NGF/BDNF (Trk receptor) induced shift of dynein intermediate chain. In kind it is cell-based. Conditions: Trk neurotrophin receptors; Gö6976 at 100 nM. From the text: Specifically, NGF and BDNF binding to Trk neurotrophin receptors caused a shift in the apparent molecular weight of dynein intermediate chain (DIC). To identify the kinase pathway involved in this change, more than 30 different kinase and phosphatase inhibitors were screened.

Assay [8] concerns cPKC-alpha, cPKC-beta, cPKC-gamma, nPKC-delta and nPKC-epsilon, and aPKC-zeta. Conditions: cited from earlier work.
The target of assay [9] is T1, PKD (Homo sapiens, UniProt Q15139).
T1 sequence (Q15139 1-912): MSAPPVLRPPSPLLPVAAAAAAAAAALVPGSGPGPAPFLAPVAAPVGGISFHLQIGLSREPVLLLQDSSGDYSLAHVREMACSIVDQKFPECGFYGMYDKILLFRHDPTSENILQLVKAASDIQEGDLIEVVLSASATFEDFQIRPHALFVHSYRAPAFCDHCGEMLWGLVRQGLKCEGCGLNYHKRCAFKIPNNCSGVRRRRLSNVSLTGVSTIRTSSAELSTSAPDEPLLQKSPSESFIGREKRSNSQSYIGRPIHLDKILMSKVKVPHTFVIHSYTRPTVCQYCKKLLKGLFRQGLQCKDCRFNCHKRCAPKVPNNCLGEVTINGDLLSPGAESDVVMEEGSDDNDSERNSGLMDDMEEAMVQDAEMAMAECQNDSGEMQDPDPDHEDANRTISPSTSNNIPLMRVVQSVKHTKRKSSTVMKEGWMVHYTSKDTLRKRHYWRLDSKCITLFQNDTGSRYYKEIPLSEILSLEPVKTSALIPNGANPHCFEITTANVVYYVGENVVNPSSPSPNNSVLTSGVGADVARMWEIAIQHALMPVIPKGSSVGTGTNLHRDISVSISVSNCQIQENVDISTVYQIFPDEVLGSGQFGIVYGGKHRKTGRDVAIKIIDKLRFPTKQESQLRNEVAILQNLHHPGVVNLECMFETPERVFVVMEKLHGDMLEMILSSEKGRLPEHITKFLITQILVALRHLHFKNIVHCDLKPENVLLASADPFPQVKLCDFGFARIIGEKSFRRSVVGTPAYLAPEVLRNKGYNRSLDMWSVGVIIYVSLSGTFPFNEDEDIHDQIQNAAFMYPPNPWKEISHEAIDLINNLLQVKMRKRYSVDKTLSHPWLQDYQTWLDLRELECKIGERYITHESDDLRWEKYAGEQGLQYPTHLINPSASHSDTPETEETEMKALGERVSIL
As to conditions: read-out: PKD autophosphorylation IC50; cited from earlier work.

Assay [10] has as its target T1, PKD. Conditions: read-out: PKD phosphorylation of the exogenous substrate syntide-2 IC50; cited from earlier work.

In the case of “Fyn: Src-Family nonreceptor tyrosine kinase perfused into axoplasm”, the “effect on fast axonal transport (retrograde RT / anterograde AT), in words” value with fast axonal transport was “indistinguishable from the effects of PKCs; also recorded: a rapid increase in the amount and rate of retrograde transport accompanied by a slow decline in anterograde transport”.
Take `CC(C)(C)n1nc(-c2ccc(Cl)cc2)c2c(N)ncnc21` [PP2, 4-amino-5-(4-chlorophenyl)-7-(t-butyl) pyrazolo[3,4-d-]pyrimidine]: in assay [1], the “blocking of MPP+ effects on fast axonal transport” value is reported as “did not”. In addition, the “prevention of Ala30Pro α-synuclein effect on neurotransmission” value in assay [2] is on record as “prevented”. In [3], the “blocking of familial Parkinson's disease mutant α-synuclein (Ala30Pro) effects on fast axonal transport” value is “effective at blocking; also recorded: blocked”. The “blocking of LB filament (wild-type α-synuclein) effects on fast axonal transport” value in assay [4] is reported as “blocked”.
With `Cn1c2ccccc2c2c3c(c4c5ccccc5n(CCC#N)c4c21)CNC3=O` [Gö6976, 5,6,7,13-Tetrahydro-13-methyl-5-oxo-12H-indolo[2,3-a]pyrrolo[3,4-c]carbazole-12-propanenitrile], the “blocking of MPP+ effects on fast axonal transport” value in [1] is given as “blocked”. In addition, the “prevention of Ala30Pro α-synuclein effect on neurotransmission” value in assay [2] is on record as “prevented”. Further, the “blocking of familial Parkinson's disease mutant α-synuclein (Ala30Pro) effects on fast axonal transport” value in assay [3] is recorded as “effective at blocking; also recorded: prevented”. In assay [5] (100 nM inhibitor, FIG. 1D), the “blocking of Fyn effects on fast axonal transport” value is recorded as “blocked”. In addition, in assay [5] (concentration not given), the “blocking of Src/Fyn actions on fast axonal transport” value was “inhibited; also recorded: abolished”. The “blocking of Reelin receptor stimulated increase in DIC phosphorylation” value in the assay with DIC phosphorylation [6] is given as “blocked”. Further, in the assay on DIC phosphorylation [7], the “blocking of MPP+ induced increase in DIC phosphorylation” value is recorded as “blocked”. Moreover, the “blocking of NGF/BDNF induced shift (phosphorylation) of DIC” value in the assay with phosphorylation of DIC is listed as “able to block”. For the same compound, the “blocking of LB filament (wild-type α-synuclein) effects on fast axonal transport” value in assay [4] was “blocked”.
As to `Oc1ccc(C=Cc2cc(O)cc(O)c2)cc1` [resveratrol], the “effects against the autophosphorylation reactions of PKC isozyme subfamily members” value in [8] is “negligible effects”. The results for the 50% inhibitory concentration (IC50) at PKD [9] and on PKD [10] were 52 µM and 36 µM, respectively.
